# Data from patent US20170035894A1, “DRUG DELIVERY CONJUGATES FOR TREATING RESISTANT CANCER AND FOR USE IN COMBINATION THERAPY” (ENDOCYTE, INC., priority 2014, published 2017).
# Where a name gives a salt, the structure may show the parent alone.
# Tests used:
# [1] = Toxicity as measured by weight loss / gross animal toxicity in tumor-bearing mice; conditions: for Toxicity Avg. Weight Loss / Toxicity Deaths (%): TIW, 2 weeks
# Description: METHOD. Toxicity as Measured by Weight Loss. The percentage weight change of the test animals was determined on selected days post-tumor inoculation (PTI), and during dosing. The results were graphed.
# (§1) Evaluation. Tumor size was monitored and body weight measured 3 times/week. Attention was given to gross animal morphology and behavior. Euthanasia was performed if the mice lost >20% of weight or when the tumors reached a size of 1500 mm3. Euthanasia was also performed at the researcher's discretion if mice lost a lot of weight in a short duration or when mice were approaching moribund conditions. Blood samples were collected by cardiac puncture from all viable animals from selected cohorts. Heart, lungs, liver, spleen, kidney, intestines, bone, brain and muscle were obtained immediately after euthanasia. The tissues were removed and stored in 10% neutral-buffered formalin.
# KB tumors = assay: Inhibition of tumor growth, s.c. KB tumors; assay type: in vivo, nu/nu mice; conditions: for CR (%) / Cures (%) / PR (%): TIW, 2 weeks
# Description: METHOD. Inhibition of Tumor Growth in Mice. Four to seven week-old mice (Balb/c or nu/nu strains) were purchased from Harlan Sprague Dawley, Inc. (Indianapolis, Ind.). Normal rodent chow contains a high concentration of folic acid (6 mg/kg chow); accordingly, test animals were maintained on a folate-free diet (Harlan diet #TD00434) for about 1 week before tumor implantation to achieve serum folate concentrations close to the range of normal human serum, and during the Method. For tumor cell inoculation, 1×10^6 M109 cells (a syngeneic lung carcinoma) in Balb/c strain, or 1×10^6 KB cells in nu/nu strain, in 100 μL were injected in the subcutis of the dorsal medial area (right axilla). Tumors were measured in two perpendicular directions every 2-3 days using a caliper, and their volumes were calculated as 0.5×L×W^2, where L=measurement of longest axis in mm and W=measurement of axis perpendicular to L in mm.
# Dosing solutions were prepared fresh each day in PBS and administered through the lateral tail vein of the mice.
# Tumor implantation. KB tumor cells were grown in folate-deficient RPMI 1640 with 5% FBS at 37° C. in a 5% CO2 humidified atmosphere. KB (1×10^6 cells per animal) tumor cells were inoculated subcutaneously […] post start of the folate deficient diet. Mice were dosed after the tumors reached between 100-150 mm3.
# Preparation of dosing drug solutions. Dosing solutions were prepared when dosing began by weighing appropriate amounts of each compound, reconstituting in PBS, pH 7.4, sterile filtering the drug solution through a 0.22 µm PVDF syringe filter, and freezing aliquots for each day of dosing at −20° C.
# as §1
# For example, a 50% decrease in tumor volume from the initial measurement represents a partial response.
# For example, a decrease in tumor volume where the measurements in two perpendicular directions are each about 2 mm or less represents a complete response.
# cells in culture = assay: Cytotoxicity of unconjugated drugs to cells in culture; assay type: cell-based; conditions: unconjugated drug; read-out: typical IC50, cytotoxic to cells in culture
# ST040 tumors = assay: Endometrial PDX tumor model; assay type: in vivo, Balb/c nu/nu mice; conditions: Paclitaxel 15 mg/kg once a week for two weeks
# Description: (§2) Female Balb/c nu/nu mice were fed ad libitum with folate-deficient chow (Harlan diet #TD01013) for the duration of the experiment. Primary human Endometrial model ST040, TNBC models 5T502 and ST738 and Ovarian model ST024 fragments (2-4 mm in diameter) were inoculated subcutaneously at the right flank of each mouse. Mice were randomized into 6 experimental groups of 5 or 3 mice each and test articles were injected through the lateral tail vein under sterile conditions in a volume of 200 μL of phosphate-buffered saline (PBS).
# (§3) Growth of each s.c. tumor was followed by measuring the tumor two times per week until a volume of 1200 mm^3 was reached. Tumors were measured in two perpendicular directions using Vernier calipers, and their volumes were calculated as 0.5×L×W^2, where L=measurement of longest axis in mm and W=measurement of axis perpendicular to L in mm.
# ST024 tumors = assay: Ovarian PDX tumor model; assay type: in vivo, Balb/c nu/nu mice; conditions: Paclitaxel 15 mg/kg once a week for two weeks
# Description: as §2, §3
# LU1147 NSCLC tumors = assay: Huprime NSCLC PDX tumor model; assay type: in vivo, Balb/c nu/nu mice; conditions: Docetaxel 15 mg/kg (one dose)
# Description: (§4) Female Balb/c nu/nu mice were fed ad libitum with folate-deficient chow (Harlan diet #TD01013) for the duration of the experiment. Primary human NSCLC models LU1147 or LU2505 fragments (2-4 mm in diameter) were inoculated subcutaneously at the right flank of each mouse. Mice were randomized into experimental groups of 7 mice and test articles were injected through the lateral tail vein under sterile conditions in a volume of 200 μL of phosphate-buffered saline (PBS). These studies were performed at Crown Bioscience (Beijing) Inc., Ground Floor, Light Muller Building, Changping Sector of Zhongguancun Scientific Park, No. 21 Huoju Road, Changping District, Beijing, P.R. China.
# as §3
# LU2505 NSCLC tumors = assay: Huprime NSCLC PDX tumor model; assay type: in vivo, Balb/c nu/nu mice; conditions: Docetaxel 15 mg/kg (one dose)
# Description: as §4, §3
# [2] = test system: KB-CR2000 (cisplatin resistant) tumors; assay: Cisplatin-resistant KB-CR2000 tumor model; assay type: in vivo, mice; conditions: cisplatin 3 mg/kg twice per week, 2 weeks
# Excerpt: METHOD. Human cisplatin-resistant cell line. […] In addition, regrowth of the tumor was only observed in 1/5 test animals.
# [3] = Cytotoxicity of unconjugated drugs to cells in culture; assay type: cell-based; conditions: cells in culture; unconjugated drug; read-out: typical IC50, cytotoxic to cells in culture
# ST502 tumors = assay: TNBC PDX tumor model; assay type: in vivo, Balb/c nu/nu mice; conditions: Eribulin mesylate 1 mg/kg once a week for two weeks
# Description: as §2, §3
# ST738 tumors = assay: TNBC PDX tumor model; assay type: in vivo, Balb/c nu/nu mice; conditions: Eribulin mesylate 1 mg/kg once a week for two weeks
# Description: as §2, §3
# [4] = KB tumors, 0.1 μmol/kg (4 doses)
# [5] = KB tumors, 0.2 μmol/kg (3 doses)
# [6] = KB tumors, 0.5 μmol/kg (1 dose)
# [7] = KB tumors, 1.0 μmol/kg (2 doses)
# [8] = 1.0 μmol/kg (2 doses, only 2 doses due to toxicity)
# [9] = Carboplatin 30 mg/kg BIW×2 combined with paclitaxel 10 mg/kg BIW×2
smiles,measurement,setting,value
"CCCC(=O)OCN(C(=O)[C@@H](NC(=O)[C@H]1CCCCN1C)[C@@H](C)CC)[C@H](C[C@@H](OC(C)=O)c1nc(C(=O)N[C@@H](Cc2ccc(O)cc2)C[C@H](C)C(=O)O)cs1)C(C)C [Tubulysin B, tubulysin B, reference compound]",Toxicity Avg. Weight Loss,[1]; [4],>20%
same,Toxicity Deaths (%),[1]; [4],100%
same,Toxicity Avg. Weight Loss,[1]; [5],>18%
same,Toxicity Deaths (%),[1]; [5],100%
same,Toxicity Avg. Weight Loss,[1]; [6],>15%
same,Toxicity Deaths (%),[1]; [6],100%
same,CR (%),KB tumors; 0.1 μmol/kg (4 doses),0%
same,Cures (%),KB tumors; 0.1 μmol/kg (4 doses),0%
same,PR (%),KB tumors; 0.1 μmol/kg (4 doses),0%
same,CR (%),KB tumors; 0.2 μmol/kg (3 doses),0%
same,Cures (%),KB tumors; 0.2 μmol/kg (3 doses),0%
same,PR (%),KB tumors; 0.2 μmol/kg (3 doses),0%
same,CR (%),KB tumors; 0.5 μmol/kg (1 dose),0%
same,Cures (%),KB tumors; 0.5 μmol/kg (1 dose),0%
same,PR (%),KB tumors; 0.5 μmol/kg (1 dose),0%
same,IC50,cells in culture,~1 nM
"COc1cccc2c1C(=O)c1c(O)c3c(c(O)c1C2=O)C[C@@](O)(C(=O)CO)C[C@@H]3O[C@H]1C[C@H](N)[C@H](O)[C@H](C)O1 [doxorubicin, reference compound]",toxicity,"[1]; KB-DR150 tumors, doxorubicin alone, DOXIL 5 mg/kg BIW×2",Mild toxicity
"CC(=O)O[C@H]1C(=O)[C@@]2(C)[C@H]([C@H](OC(=O)c3ccccc3)[C@]3(O)C[C@H](OC(=O)[C@H](O)[C@@H](NC(=O)c4ccccc4)c4ccccc4)C(C)=C1C3(C)C)[C@]1(OC(C)=O)CO[C@@H]1C[C@@H]2O [Paclitaxel, paclitaxel, reference compound]",animals exhibiting stable disease,ST040 tumors,zero
same,anti-tumor activity,ST024 tumors,no anti-tumor activity
CC(=O)O[C@@]12CO[C@@H]1C[C@H](O)[C@@]1(C)C(=O)[C@H](O)C3=C(C)[C@@H](OC(=O)[C@H](O)[C@@H](NC(=O)OC(C)(C)C)c4ccccc4)C[C@@](O)([C@@H](OC(=O)c4ccccc4)[C@H]21)C3(C)C [docetaxel],toxicity,"[1]; KB tumors, docetaxel alone 7 mg/kg BIW×3",Mild toxicity
same,animals exhibiting stable disease,LU1147 NSCLC tumors,2 animals
same,CR's,LU2505 NSCLC tumors,2
same,PR's,LU2505 NSCLC tumors,2
same,cures,LU2505 NSCLC tumors,2
"N.N.[Cl][Pt][Cl] [cisplatin, reference compound]",partial response (PR),[2],did not produce even a single partial response
"CCCC(=O)OCN(C(=O)[C@@H](NC(=O)[C@H]1CCCCN1C)C(C)CC)[C@H](C[C@@H](OC(C)=O)c1nc(C(=O)N[C@@H](Cc2ccc(O)cc2)C[C@H](C)C(=O)NN)cs1)C(C)C (stereo partly shown) [TubB-H, reference compound]",Toxicity Avg. Weight Loss,"[1]; KB tumors, 0.5 μmol/kg",<5.5%
same,Toxicity Deaths (%),"[1]; KB tumors, 0.5 μmol/kg",0%
same,Toxicity Avg. Weight Loss,"[1]; KB tumors, 0.75 μmol/kg",>10%
same,Toxicity Deaths (%),"[1]; KB tumors, 0.75 μmol/kg",20%
same,Toxicity Avg. Weight Loss,[1]; [7],>15%
same,Toxicity Deaths (%),[1]; [7],20%
same,CR (%),KB tumors; 0.5 μmol/kg,0%
same,Cures (%),KB tumors; 0.5 μmol/kg,0%
same,PR (%),KB tumors; 0.5 μmol/kg,0%
same,CR (%),KB tumors; 0.75 μmol/kg,0%
same,Cures (%),KB tumors; 0.75 μmol/kg,0%
same,PR (%),KB tumors; 0.75 μmol/kg,0%
same,CR (%),KB tumors; [8],0%
same,Cures (%),KB tumors; [8],0%
same,PR (%),KB tumors; [8],0%
same,IC50,[3],~1 nM
"C=C1C[C@@H]2CC[C@@]34C[C@H]5O[C@H]6[C@@H](O3)[C@H]3O[C@H](CC[C@@H]3O[C@H]6[C@H]5O4)CC(=O)C[C@@H]3[C@@H](OC)[C@@H](C[C@H](O)CN)O[C@H]3C[C@H]3O[C@@H](CC[C@@H]1O2)C[C@@H](C)C3=C [Eribulin mesylate, eribulin mesylate, reference compound]",animal exhibiting PR,ST502 tumors,1 animal
same,animal exhibiting stable disease,ST502 tumors,1 animal
same,PR's,ST738 tumors,2
same,animals exhibiting stable disease,ST738 tumors,5 animals
"N.N.O=C([O-])C1(C(=O)[O-])CCC1.[Pt+2] [carboplatin, reference compound]",toxicity,"[1]; KB tumors, carboplatin/paclitaxel study, carboplatin administered alone",Mild toxicity
same,toxicity,"[1]; P-1635 KB tumors, carboplatin alone 50 mg/kg TIW",Mild toxicity
same,CR's,KB tumors; [9],80%
same,cures,KB tumors; [9],20%
